Assays:
TR-α = target: T1, TR-α (Homo sapiens, UniProt P10827); assay: In vitro TR-α activity (in-house protocol); type: cell-based
T1 sequence (P10827 1-410 isoform P10827-2): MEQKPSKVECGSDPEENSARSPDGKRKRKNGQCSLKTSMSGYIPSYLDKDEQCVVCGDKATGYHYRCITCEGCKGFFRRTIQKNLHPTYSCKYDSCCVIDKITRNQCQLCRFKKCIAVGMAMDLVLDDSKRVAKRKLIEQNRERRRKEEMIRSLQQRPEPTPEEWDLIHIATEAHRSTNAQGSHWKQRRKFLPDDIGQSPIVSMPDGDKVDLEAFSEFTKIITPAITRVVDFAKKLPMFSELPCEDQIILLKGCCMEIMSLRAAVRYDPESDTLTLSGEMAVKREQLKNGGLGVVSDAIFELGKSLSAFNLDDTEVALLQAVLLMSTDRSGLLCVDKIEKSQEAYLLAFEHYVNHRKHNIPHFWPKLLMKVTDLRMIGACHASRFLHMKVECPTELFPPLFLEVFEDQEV
Description: (§1) Invitro TR-α & TR-β activities were determined as per in-house protocols and the results of representative compounds are provided in tables 1 & 2 below as a proof of the efficacies of the novel class of compounds disclosed above.

TR-β = target: T2, TR-β (Homo sapiens, UniProt P10828); assay: In vitro TR-β activity (in-house protocol); type: cell-based; conditions: for fold induction at 0.001 µM: Conc. 1 nM; for fold induction at 0.001 µM / fold induction at 0.01 µM / fold induction at 0.1 µM / fold induction at 1 µM: read-out: TR-β Fold Induction w.r.t T3(100 nm); for fold induction at 0.01 µM: Conc. 10 nM; for fold induction at 0.1 µM: Conc. 100 nM; for fold induction at 1 µM: Conc. 1000 nM
T2 sequence (P10828 1-461): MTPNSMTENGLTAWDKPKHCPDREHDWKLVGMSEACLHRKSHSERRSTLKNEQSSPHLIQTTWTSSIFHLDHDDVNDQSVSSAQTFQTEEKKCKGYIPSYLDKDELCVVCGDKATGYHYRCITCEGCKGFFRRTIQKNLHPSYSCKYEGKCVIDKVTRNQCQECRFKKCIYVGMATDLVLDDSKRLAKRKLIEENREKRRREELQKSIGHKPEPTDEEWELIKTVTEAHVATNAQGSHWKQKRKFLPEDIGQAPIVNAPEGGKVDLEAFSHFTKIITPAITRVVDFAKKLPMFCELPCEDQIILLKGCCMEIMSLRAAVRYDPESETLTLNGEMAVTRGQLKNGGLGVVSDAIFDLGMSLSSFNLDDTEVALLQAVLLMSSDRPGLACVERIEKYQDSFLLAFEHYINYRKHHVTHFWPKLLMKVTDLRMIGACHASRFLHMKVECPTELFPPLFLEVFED
Description: as §1

O=C(O)CN(C(=O)Oc1ccc(O)cc1)c1cc(Cl)c(Oc2ccc(O)c(C(=O)c3ccc(F)cc3)c2)c(Cl)c1 [Example 55, [{3,5-Dichloro-4-[3-(4-fluoro-benzoyl)-4-hydroxy-phenoxy]-phenyl}-(4-hydroxy-phenoxycarbonyl)-amino]-acetic acid]
EC50 (TR-α): 107 nM | EC50 (TR-β): 64.3 nM

O=C(O)CN(C(=O)Oc1ccc(O)cc1)c1cc(Cl)c(Oc2ccc(O)c(C(O)c3ccc(Cl)cc3)c2)c(Cl)c1 (centres unmarked) [Example 56, [(3,5-Dichloro-4-{3-[(4-chloro-phenyl)-hydroxy-methyl]-4-hydroxy-phenoxy}-phenyl)-(4-hydroxy-phenoxycarbonyl)-amino]-acetic acid]
EC50 (TR-α): 13.4 nM | EC50 (TR-β): 20.4 nM

O=C(O)CN(C(=O)Oc1ccc(O)cc1)c1cc(Cl)c(Oc2ccc(O)c(S(=O)(=O)N3CCCCCC3)c2)c(Cl)c1 [Example 57, [{4-[3-(Azepane-1-sulfonyl)-4-hydroxy-phenoxy]-3,5-dichloro-phenyl}-(4-hydroxy-phenoxycarbonyl)-amino]-acetic acid]
TR-α Fold Induction w.r.t T3(100 nm) (TR-α; Conc. 1 nM): 21.61 | TR-α Fold Induction w.r.t T3(100 nm) (TR-α; Conc. 10 nM): 24.62 | TR-α Fold Induction w.r.t T3(100 nm) (TR-α; Conc. 100 nM): 35.93 | TR-α Fold Induction w.r.t T3(100 nm) (TR-α; Conc. 1000 nM): 60.40 | fold induction at 0.001 µM (TR-β): 12.6 | fold induction at 0.01 µM (TR-β): 14.8 | fold induction at 0.1 µM (TR-β): 23.6 | fold induction at 1 µM (TR-β): 62.5

O=C(O)CN(C(=O)Oc1ccc(O)cc1)c1cc(Cl)c(Oc2ccc(O)c(S(=O)(=O)N3CCOCC3)c2)c(Cl)c1 [Example 61, [{3,5-Dichloro-4-[4-hydroxy-3-(morpholine-4-sulfonyl)-phenoxy]-phenyl}-(4-hydroxy-phenoxycarbonyl)-amino]-acetic acid]
TR-α Fold Induction w.r.t T3(100 nm) (TR-α; Conc. 1 nM): 11.55 | TR-α Fold Induction w.r.t T3(100 nm) (TR-α; Conc. 10 nM): 12.50 | TR-α Fold Induction w.r.t T3(100 nm) (TR-α; Conc. 100 nM): 12.30 | TR-α Fold Induction w.r.t T3(100 nm) (TR-α; Conc. 1000 nM): 28.11 | fold induction at 0.001 µM (TR-β): 10.2 | fold induction at 0.01 µM (TR-β): 12.2 | fold induction at 0.1 µM (TR-β): 28.9 | fold induction at 1 µM (TR-β): 85.2

O=C(O)CN(C(=O)Oc1ccc(O)cc1)c1cc(Cl)c(Oc2ccc(O)c(S(=O)(=O)N3CCCC3)c2)c(Cl)c1 [Example 63, [{3,5-Dichloro-4-[4-hydroxy-3-(pyrrolidine-1-sulfonyl)-phenoxy]-phenyl}-(4-hydroxy-phenoxycarbonyl)-amino]-acetic acid]
EC50 (TR-α): 337 nM | EC50 (TR-β): 254 nM

Cc1cccc(C(=O)c2cc(Oc3c(Cl)cc(N(CC(=O)O)C(=O)Oc4ccc(O)cc4)cc3Cl)ccc2O)c1 [Example 66, [{3,5-Dichloro-4-[4-hydroxy-3-(3-methyl-benzoyl)-phenoxy]-phenyl}-(4-hydroxy-phenoxycarbonyl)-amino]-acetic acid]
TR-α Fold Induction w.r.t T3(100 nm) (TR-α; Conc. 1 nM): 20.56 | TR-α Fold Induction w.r.t T3(100 nm) (TR-α; Conc. 10 nM): 15.36 | TR-α Fold Induction w.r.t T3(100 nm) (TR-α; Conc. 100 nM): 18.11 | TR-α Fold Induction w.r.t T3(100 nm) (TR-α; Conc. 1000 nM): 25.75 | fold induction at 0.001 µM (TR-β): 36.7 | fold induction at 0.01 µM (TR-β): 25.9 | fold induction at 0.1 µM (TR-β): 40.7 | fold induction at 1 µM (TR-β): 55.2

O=C(O)CN(C(=O)Oc1ccc(O)cc1)c1cc(Br)c(Oc2ccc(O)c(C(=O)c3ccc(Cl)cc3)c2)c(Br)c1 [Example 67, [{3,5-Dibromo-4-[3-(4-chloro-benzoyl)-4-hydroxy-phenoxy]-phenyl}-(4-hydroxy-phenoxycarbonyl)-amino]-acetic acid]
EC50 (TR-α): 49 nM | EC50 (TR-β): 12.8 nM
